“And” between values parts separate entries of the source, which are not always exact repeats. Equal entries are not always repeated.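 Briefly, cells in 96-well plates were exposed to five compound concentrations for 48 h, and endpoints were estimated by linear interpolation. GI50 is the concentration that inhibits growth by half.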 The source made the active and inactive calls. Cut-off read from the data, not from the text of the source: active = GI50 up to about 1.1 µM and inactive = higher.
Assays:
Test in all cases: NCI tumour cell line growth inhibition, 48 h
SNB-19 = system: SNB-19
U-251 = system: U-251
CAKI-1 = system: CAKI-1
786-0 = system: 786-0
A498 = system: A498
A549 = system: A549
ACHN = system: ACHN
CCRF-CEM = system: CCRF-CEM
COLO 205 = system: COLO 205
DU-145 = system: DU-145
EKVX = system: EKVX
HCC 2998 = system: HCC 2998
HCT-15 = system: HCT-15
HL-60 = system: HL-60
HOP-62 = system: HOP-62
HOP-92 = system: HOP-92
HT-29 = system: HT-29
Hs-578T = system: Hs-578T
IGROV-1 = system: IGROV-1
K562 = system: K562
KM12 = system: KM12
LOX IMVI = system: LOX IMVI
M14 = system: M14
MCF7 = system: MCF7
MDA-MB-231 = system: MDA-MB-231
MDA-MB-435 = system: MDA-MB-435
MDA-N = system: MDA-N
MOLT-4 = system: MOLT-4
Malme-3M = system: Malme-3M
NCI-H226 = system: NCI-H226
NCI-H23 = system: NCI-H23
NCI-H460 = system: NCI-H460
NCI-H522 = system: NCI-H522
NCI/ADR-RES = system: NCI/ADR-RES
OVCAR-3 = system: OVCAR-3
OVCAR-4 = system: OVCAR-4
OVCAR-5 = system: OVCAR-5
OVCAR-8 = system: OVCAR-8
PC-3 = system: PC-3
RPMI-8226 = system: RPMI-8226
RXF 393 = system: RXF 393
SF-268 = system: SF-268
SF-295 = system: SF-295
SF-539 = system: SF-539
SK-MEL-28 = system: SK-MEL-28
SK-MEL-2 = system: SK-MEL-2
SK-MEL-5 = system: SK-MEL-5
SK-OV-3 = system: SK-OV-3
SNB-75 = system: SNB-75
SR = system: SR
SW-620 = system: SW-620
T47D = system: T47D
TK-10 = system: TK-10
UACC-257 = system: UACC-257
UACC-62 = system: UACC-62
UO-31 = system: UO-31
HCT-116 = system: HCT-116
SN12C = system: SN12C

Cc1cc(NCCCCCCNc2cc(C)nc3ccc(N)cc23)c2cc(N)ccc2n1
GI50 (SNB-19): 37 µM (inactive) | GI50 (U-251): 42.3 µM (inactive)

Cc1cc(-c2nc3ccc(O)cc3s2)ccc1N
GI50 (CAKI-1): 34.8 µM (inactive)

O=C1CCCCCC1CC(Sc1ccccc1)Sc1ccccc1 (stereo unspecified)
GI50 (786-0): > 100 µM (inactive) | GI50 (A498): > 100 µM (inactive) | GI50 (A549): 39.8 µM (inactive) | GI50 (ACHN): > 100 µM (inactive) | GI50 (CAKI-1): > 100 µM (inactive) | GI50 (CCRF-CEM): 25.2 µM (inactive) | GI50 (COLO 205): 61.4 µM (inactive) | GI50 (DU-145): > 100 µM (inactive) | GI50 (EKVX): > 100 µM (inactive) | GI50 (HCC 2998): > 100 µM (inactive) | GI50 (HCT-15): > 100 µM | GI50 (HL-60): 21 µM (inactive) | GI50 (HOP-62): > 100 µM (inactive) | GI50 (HOP-92): > 100 µM (inactive) | GI50 (HT-29): > 100 µM (inactive) | GI50 (Hs-578T): 96.2 µM (inactive) | GI50 (IGROV-1): > 100 µM (inactive) | GI50 (K562): 46.7 µM (inactive) | GI50 (KM12): 60.8 µM (inactive) | GI50 (LOX IMVI): > 100 µM (inactive) | GI50 (M14): > 100 µM (inactive) | GI50 (MCF7): 72.3 µM (inactive) | GI50 (MDA-MB-231): > 100 µM (inactive) | GI50 (MDA-MB-435): > 100 µM (inactive) | GI50 (MDA-N): > 100 µM (inactive) | GI50 (MOLT-4): 8.69 µM (inactive) | GI50 (Malme-3M): > 100 µM (inactive) | GI50 (NCI-H226): > 100 µM (inactive) | GI50 (NCI-H23): 75.3 µM (inactive) | GI50 (NCI-H460): 64.7 µM (inactive) | GI50 (NCI-H522): 65.3 µM (inactive) | GI50 (NCI/ADR-RES): > 100 µM (inactive) | GI50 (OVCAR-3): 46.9 µM (inactive) | GI50 (OVCAR-4): 96.4 µM (inactive) | GI50 (OVCAR-5): > 100 µM (inactive) | GI50 (OVCAR-8): > 100 µM (inactive) | GI50 (PC-3): 51.6 µM (inactive) | GI50 (RPMI-8226): 37.6 µM (inactive) | GI50 (RXF 393): > 100 µM (inactive) | GI50 (SF-268): > 100 µM (inactive) | GI50 (SF-295): > 100 µM (inactive) | GI50 (SF-539): > 100 µM (inactive) | GI50 (SK-MEL-28): > 100 µM (inactive) | GI50 (SK-MEL-2): > 100 µM (inactive) | GI50 (SK-MEL-5): 52.5 µM (inactive) | GI50 (SK-OV-3): > 100 µM (inactive) | GI50 (SNB-19): > 100 µM (inactive) | GI50 (SNB-75): 49.3 µM (inactive) | GI50 (SR): 32.8 µM (inactive) | GI50 (SW-620): 98.2 µM (inactive) | GI50 (T47D): 14.4 µM (inactive) | GI50 (TK-10): > 100 µM (inactive) | GI50 (U-251): > 100 µM (inactive) | GI50 (UACC-257): 59.8 µM (inactive) | GI50 (UACC-62): 81.8 µM (inactive) | GI50 (UO-31): 88.5 µM (inactive)

CCOC(=O)C(Cl)(NC(=O)NC(Cl)(C(=O)OCC)C(F)(F)F)C(F)(F)F (stereo unspecified)
GI50 (786-0): > 100 µM (inactive) | GI50 (A498): > 100 µM (inactive) | GI50 (ACHN): > 100 µM (inactive) | GI50 (CCRF-CEM): > 100 µM (inactive) | GI50 (COLO 205): > 100 µM (inactive) | GI50 (HCC 2998): > 100 µM (inactive) | GI50 (HCT-116): > 100 µM (inactive) | GI50 (HCT-15): > 100 µM | GI50 (HL-60): > 100 µM (inactive) | GI50 (HT-29): > 100 µM (inactive) | GI50 (Hs-578T): > 100 µM (inactive) | GI50 (K562): > 100 µM (inactive) | GI50 (LOX IMVI): > 100 µM (inactive) | GI50 (MDA-N): > 100 µM (inactive) | GI50 (MOLT-4): > 100 µM (inactive) | GI50 (NCI-H23): > 100 µM (inactive) | GI50 (NCI/ADR-RES): > 100 µM (inactive) | GI50 (OVCAR-5): > 100 µM (inactive) | GI50 (PC-3): > 100 µM (inactive) | GI50 (RPMI-8226): > 100 µM (inactive) | GI50 (RXF 393): > 100 µM (inactive) | GI50 (SF-268): > 100 µM (inactive) | GI50 (SF-539): > 100 µM (inactive) | GI50 (SK-MEL-28): > 100 µM (inactive) | GI50 (SK-MEL-2): > 100 µM (inactive) | GI50 (SK-OV-3): > 100 µM (inactive) | GI50 (SN12C): > 100 µM (inactive) | GI50 (SNB-19): > 100 µM (inactive) | GI50 (SNB-75): > 100 µM (inactive) | GI50 (SR): > 100 µM (inactive) | GI50 (U-251): > 100 µM (inactive) | GI50 (UACC-257): > 100 µM (inactive) | GI50 (UO-31): > 100 µM (inactive)

CC1(C)C2CC(=O)C1(C)C(OCc1ccccc1)C2Br (stereo unspecified)
GI50 (A549): 37.8 µM (inactive) and 59.3 µM (inactive) | GI50 (CCRF-CEM): 15.8 µM (inactive) and 20.5 µM (inactive) | GI50 (EKVX): 50 µM (inactive) and 57.9 µM (inactive) | GI50 (HCT-116): 19.3 µM (inactive) and 38.2 µM (inactive) | GI50 (HCT-15): 17.3 µM and 34 µM | GI50 (HL-60): 22.5 µM (inactive) and 23.2 µM (inactive) | GI50 (HT-29): 15.5 µM (inactive) and 22.6 µM (inactive) | GI50 (IGROV-1): 74.8 µM (inactive) and 43.8 µM (inactive) | GI50 (K562): 27.1 µM (inactive) and 23.2 µM (inactive) | GI50 (MCF7): 36 µM (inactive) and 62.8 µM (inactive) | GI50 (MDA-MB-435): 29.9 µM (inactive) and 25.6 µM (inactive) | GI50 (MOLT-4): 17.7 µM (inactive) and 17.3 µM (inactive) | GI50 (NCI-H23): 40.7 µM (inactive) and 27.9 µM (inactive) | GI50 (NCI/ADR-RES): 20.7 µM (inactive) and 36.7 µM (inactive) | GI50 (PC-3): 18 µM (inactive) and 28.6 µM (inactive) | GI50 (SF-268): 56.6 µM (inactive) | GI50 (SF-295): 25.2 µM (inactive) and 50.4 µM (inactive) | GI50 (SK-MEL-5): 14.6 µM (inactive) and 20.7 µM (inactive) | GI50 (SR): 21.4 µM (inactive) and 25.1 µM (inactive) | GI50 (SW-620): 19.3 µM (inactive) and 32.7 µM (inactive) | GI50 (T47D): 46.2 µM (inactive) and 28.2 µM (inactive) | GI50 (TK-10): 53.6 µM (inactive) | GI50 (UACC-62): 34.9 µM (inactive) and 58.3 µM (inactive)

[O-][n+]1onc2c1-c1nonc1CC2
GI50 (786-0): 43.7 µM (inactive) | GI50 (A498): 31.7 µM (inactive) | GI50 (A549): 72.1 µM (inactive) | GI50 (ACHN): 27.1 µM (inactive) | GI50 (CAKI-1): 69.3 µM (inactive) | GI50 (CCRF-CEM): 27.7 µM (inactive) | GI50 (COLO 205): 48.5 µM (inactive) | GI50 (DU-145): 51.2 µM (inactive) | GI50 (EKVX): 25.9 µM (inactive) | GI50 (HCC 2998): 77.1 µM (inactive) | GI50 (HCT-116): 20.7 µM (inactive) | GI50 (HCT-15): 62.8 µM | GI50 (HL-60): 34.5 µM (inactive) | GI50 (HOP-62): 28.2 µM (inactive) | GI50 (HT-29): 35.5 µM (inactive) | GI50 (Hs-578T): 26.7 µM (inactive) | GI50 (IGROV-1): 38.8 µM (inactive) | GI50 (K562): 56 µM (inactive) | GI50 (KM12): 45.3 µM (inactive) | GI50 (LOX IMVI): 22.4 µM (inactive) | GI50 (M14): 25.1 µM (inactive) | GI50 (MCF7): 28.5 µM (inactive) | GI50 (MDA-MB-231): 27 µM (inactive) | GI50 (MDA-MB-435): 39.1 µM (inactive) | GI50 (MDA-N): 46.2 µM (inactive) | GI50 (MOLT-4): 19.2 µM (inactive) | GI50 (Malme-3M): 11.9 µM (inactive) | GI50 (NCI-H226): 36.8 µM (inactive) | GI50 (NCI-H23): 23.8 µM (inactive) | GI50 (NCI-H460): 54.2 µM (inactive) | GI50 (NCI-H522): 31 µM (inactive) | GI50 (NCI/ADR-RES): 42.7 µM (inactive) | GI50 (OVCAR-3): 10.6 µM (inactive) | GI50 (OVCAR-4): 30.3 µM (inactive) | GI50 (OVCAR-5): 50.8 µM (inactive) | GI50 (OVCAR-8): 46 µM (inactive) | GI50 (PC-3): 26.5 µM (inactive) | GI50 (RPMI-8226): > 100 µM (inactive) | GI50 (RXF 393): 36.1 µM (inactive) | GI50 (SF-268): 36.5 µM (inactive) | GI50 (SF-295): > 100 µM (inactive) | GI50 (SF-539): 25.3 µM (inactive) | GI50 (SK-MEL-28): 55.2 µM (inactive) | GI50 (SK-MEL-2): 24.1 µM (inactive) | GI50 (SK-MEL-5): 27 µM (inactive) | GI50 (SK-OV-3): 47.9 µM (inactive) | GI50 (SN12C): 37.5 µM (inactive) | GI50 (SNB-19): > 100 µM (inactive) | GI50 (SR): 1.46 µM (inactive) | GI50 (SW-620): 45.1 µM (inactive) | GI50 (T47D): 83 µM (inactive) | GI50 (TK-10): 21.5 µM (inactive) | GI50 (U-251): 31.9 µM (inactive) | GI50 (UACC-257): 18.5 µM (inactive) | GI50 (UACC-62): 36.6 µM (inactive) | GI50 (UO-31): 48.6 µM (inactive)
